A short description of data set [1]: Total and free plasma tiopronin and urinary tiopronin recovery in Beagle dogs after oral dosing by four regimens (Example 4). The format is in vivo. Conditions: for % of the dose (unchanged drug) found in urine / maximum plasma concentrations of free tiopronin / maximum plasma concentrations of total tiopronin: average, n=3 dogs; for free (unbound) tiopronin in plasma over time: FIG. 12. How it is done:
The objective of this study was to evaluate total and free plasma tiopronin, and total urinary tiopronin, in an animal model (male Beagle dogs) following oral administration of tiopronin, according to various dose regimens, to determine whether different regimens, simulating modified release, would improve drug pharmacokinetics. Specifically, tiopronin formulations were administered to deliver 30 mg/kg per dog via single or multiple doses divided over a 12-hour period; and blood and urine samples then collected at different times post-dose.
Tiopronin formulations were administered to provide 30 mg/kg per dog according to four different dosage regimes (Leg 1, Leg 2, Leg 3, and Leg 4), as set forth in the table below. Leg 2, Leg 3, and Leg 4 (also referred to as Q6H, Q3H, and Q2H respectively) were designed to simulate modified-release formulations, in accordance with certain embodiments of the present invention. Following administration, blood and urine samples were collected at the time points, or over the time intervals, also as indicated below.
Preparation of Dosing Formulations: Capsules for Legs 1-4 were prepared and filled on the day of dosing, as follows. For Legs 1 and 2, tiopronin was dry mixed with avicel and mannitol to make a 40:30:30 mixture of tiopronin to avicel to mannitol, respectively; for study Legs 3 and 4, a 20:40:40 mixture of tiopronin to avicel to mannitol, respectively, was prepared. The dry mixes were custom filled with the appropriate amount of powder to deliver the specified doses to each dog based, on their respective body weights.
Animal Dosing and Sample Collection: This non-clinical study followed established practices and standard operating procedures of Absorption Systems and Absorption Systems Inc., as well as the study protocol. Study groups each included three dogs. The dogs were housed one per cage. The dogs were fasted for at least six hours prior to each administration of the formulation. Food was given approximately ten hours post initial dosing. Animals had free access to water throughout the study.
Following dosing, blood and urine samples were collected according to the schedule in Table 1.
Blood samples were collected via direct venipuncture of the jugular vein or other accessible vein of the dog, and placed in chilled polypropylene tubes containing sodium heparin as an anticoagulant. Samples were maintained chilled throughout processing. Blood samples were centrifuged at 4° C. and 3,000 rpm (revolutions per minute) for 5 minutes. The first aliquot of plasma was precipitated with methanol by combining 200 μL of plasma with 600 μL of methanol in a centrifuge tube. The samples were mixed, centrifuged at 3,000 rpm for 5 minutes. The resulting supernatant was decanted into clean, labeled polypropylene tubes. The remaining plasma volume was transferred to a chilled, labeled polypropylene tube, placed on dry ice, and stored in a freezer maintained at −60° C. to −80° C. Following taking each blood sample, 15 mL of water was given to the dog via syringe.
For study Leg 1, pre-dose urine samples were collected via free catch approximately 2 hours pre-dose. For study Legs 2, 3 and 4, pre-dose urine samples were collected via catheter approximately 2 hours pre-dose. Other urine samples were collected via free catch in the cages during the indicated interval, collected into clean bottles, and kept on cold packs. Cold packs were replenished as needed during the day. At the end of each interval, the total volume of urine was collected and recorded. Each sample was well mixed and divided into two aliquots: an approximately 5 mL first aliquot, and a second aliquot of the remaining volume. Additionally, for Leg 4 only, each dog received a 60 mL subcutaneous injection of saline (2×30 mL injections at two different sites) approximately 30 minutes prior to dosing and, if urine was not present in the animal's cage at the end of the final collection interval, the final urine sample was collected by catheter. […]

A short description of data set [2]: Total and free plasma tiopronin and urinary tiopronin recovery in Beagle dogs after intraduodenal administration (Example 5). The format is in vivo. The method, then:
The objective of this study was to evaluate total and free plasma tiopronin, and total urinary tiopronin, in an animal model (male Beagle dogs) following intraduodenal administration of tiopronin, to determine whether small intestine administration, would improve drug pharmacokinetics. Specifically, tiopronin formulations were administered to deliver 30 mg/kg per dog via single dose; and blood and urine samples then collected at different times post-dose.
Tiopronin formulations were administered to provide 30 mg/kg per dog as one single intraduodenal dose. Following administration, blood and urine samples were collected at the time points, or over the time intervals, indicated below.
Preparation of Dosing Formulations: Capsules were prepared and filled on the day of dosing, as follows. Tiopronin was dry mixed with avicel and mannitol to make a 40:30:30 mixture of tiopronin to avicel to mannitol, respectively. The dry mixes were custom filled with the appropriate amount of powder to deliver the specified doses to each dog based, on their respective body weights.
Animal Dosing and Sample Collection: This non-clinical study followed established practices and standard operating procedures of Absorption Systems and Absorption Systems Inc., as well as the study protocol. Study groups each included three dogs. The dogs were housed one per cage. The dogs were fasted for at least sixteen hours prior to each administration of the formulation. Food was given approximately eight hours post initial dosing. Animals had free access to water throughout the study.
Intraduodenal (ID) administration: Animals were anesthetized by a slow IV infusion of Propofol (6-10 mg/kg) or with an intramuscular injection of a cocktail containing ketamine (approximately 10-20 mg/kg), diazepam (3 mg/kg), and acepromazine (0.05 mg/kg) given IM about 5-10 minutes before intubation. Once animals were confirmed adequately anesthetized they were intubated and maintained using isoflurane (approximately 1-5% in oxygen 1 to 4 L/min) as necessary until dosing is complete. Formulations were administered into the proximal duodenum via endoscopic guidance to verify the dosing site. The endoscope first was maneuvered into the pyloric sphincter with camera visualization of the proximal duodenum. Once there was confirmation that the endoscope was placed between the pylorus and proximal duodenum, the test article was delivered to the proximal duodenum followed by a 5 mL flush. Upon completion of the dosing, the animals were taken off the isoflurane and allowed to recover from anesthesia. Time points began upon completion of the entire dose procedure. Following each blood sampling time point, 15 mL of water was given to each dog via syringe. […]

Where [3] appears, read: Leg 1 (Q12H): PO single 30 mg/kg dose.
The mark [4] stands for this setting: Leg 2 (Q6H): PO two 15 mg/kg doses at 0 and 6 h.
Setting [5] is: Leg 3 (Q3H): PO four 7.5 mg/kg doses at 0, 3, 6, 9 h.
[6] abbreviates: Leg 4: PO six 5 mg/kg doses at 0, 2, 4, 6, 8, 10 h.
Setting [7] is: intraduodenal single 30 mg/kg dose, average, n=3 dogs.

On to `CC(S)C(=O)NCC(=O)O` (stereo not drawn) [tiopronin, alpha-mercaptopropionylglycine], for which the “% of the dose (unchanged drug) found in urine” value in data set [1] (setting [3]) is 19.9±8.51%; in data set [1] (setting [4]), 37.5±14.5%; in data set [1] (setting [5]), 50.6±14.0%; in data set [1] (setting [6]), 32.7±5.90%; in data set [2] (ID single 30 mg/kg dose, average, n=3 dogs), 30.5±19.9%. The “maximum plasma concentrations of free tiopronin” value worked out at 11063 ± 3598 ng/mL in data set [1] (setting [3]); 8177 ± 2237 ng/mL in data set [1] (setting [4]); 3143 ± 624 ng/mL in data set [1] (setting [5]); 2323 ± 589 ng/mL in data set [1] (setting [6]); 1643 ± 105 ng/mL in data set [2] (setting [7]). Besides, the “maximum plasma concentrations of total tiopronin” value in data set [1] (setting [3]) turned out to be 27900 ± 8122 ng/mL; in data set [1] (Leg 2 (Q6H): PO 30 mg/kg as two 15 mg/kg doses at 0 and 6 h), 23833 ± 5829 ng/mL; in data set [1] (Leg 3 (Q3H): PO 30 mg/kg as four 7.5 mg/kg doses at 0, 3, 6, 9 h) it was 10437 ± 1201 ng/mL; in data set [1] (Leg 4: PO 30 mg/kg as six 5 mg/kg doses at 0, 2, 4, 6, 8, 10 h), 10297 ± 2199 ng/mL; in data set [2] (setting [7]), 8640 ± 5522 ng/mL. Besides, the “time of maximum plasma concentrations of free tiopronin” value in data set [1] (setting [6]) is 3 hours post dosing. The “free (unbound) tiopronin in plasma over time” value is reported as “disappear from the plasma after a short period of time” in data set [1] (Legs 1 and 2 (Q12H and Q6H)); “maintained” in data set [1] (Legs 3 and 4 (Q3H and Q2H)). Besides, the “urinary recovery of tiopronin, comparison of four dosing schedules” value in data set [1] (Q3H vs Q12H, Q6H, Q2H, FIG. 13) is recorded as “best tiopronin recovery in urine”. Also, the “urinary recovery of tiopronin, small intestine vs oral administration” value in data set [2] (single 30 mg/kg dose, FIG. 16) is on record as “better tiopronin recovery in urine”.

The values above are taken from patent US12472160B2, “Modified-release tiopronin compositions, kits and methods for treating cystinuria and related disorders” (ALTIBIO, INC., priority 2017, dated 2025).
